Assay results: PubChem BioAssay (NCI)
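Interpolation was linear, between the two tested concentrations surrounding the appropriate level; five concentrations were tested over 48 hours in 96-well plates. TGI marks complete inhibition of growth.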

Tests used:
Assay in all cases: NCI-60 cell line screen, 48 h
[1] = test system: PC-3 prostate
[2] = test system: LOX IMVI melanoma
[3] = test system: COLO 205 colon
[4] = test system: OVCAR-5 ovarian
[5] = test system: BT-549 breast
[6] = test system: MDA-N
[7] = test system: IGROV1 ovarian
[8] = test system: KM12 colon
[9] = test system: RXF 393 renal
[10] = test system: SK-MEL-2 melanoma
[11] = test system: MDA-MB-435
[12] = test system: NCI-H226 lung
[13] = test system: HOP-62 NSCLC
[14] = test system: NCI-H460 lung
[15] = test system: SK-MEL-28 melanoma
[16] = test system: HS 578T breast

Measured: TGI

CCOC(=O)/C(C=Nc1c(C)n(C)n(-c2ccccc2)c1=O)=C(/C)O
> 100 µM: [1] | [2] | [3] | [4] | [5] | [6] | [7] | [8] | [9] | [10] | [11] | [12]

CN(N=O)C(=O)ON1C(=O)CCC1=O
> 100 µM: [13] | [14] | [2] | [4] | [7] | [8] | [10] | [12] | [15]

Cc1ccc(/C=C/C(=O)C(C)(C)CN2CCCCC2)cc1
29.5 µM: [13]
35.6 µM: [7]
33.4 µM: [15]
30 µM: [4]
13.4 µM: [8]
23.5 µM: [14]
17.2 µM: [3]
27.6 µM: [12]
18.7 µM: [9]
23.4 µM: [2] | [10]

NC(N)=NCCCC(NC(=O)c1cccc2c(=O)c3ccccc3[nH]c12)C(=O)O (configuration not stated)
> 100 µM: [1] | [13] | [16] | [2] | [3] | [4] | [6] | [7] | [8] | [10] | [11] | [12] | [15]

O=C(CSc1nnc(Cc2ccccc2)o1)Nc1ccccc1
> 100 µM: [13] | [14] | [2] | [3] | [4] | [7] | [8] | [9] | [10] | [12] | [15]

CC1CC(C)C(C#N)N(C)c2ccccc21 (configuration not stated)
> 100 µM: [1] | [13] | [14] | [16] | [3] | [4] | [6] | [7] | [8] | [9] | [10] | [11] | [12] | [15]

COc1c(F)c(F)c(/C(O)=C\c2nc3ccccc3[nH]c2=O)c(F)c1F
8.34 µM: [2]
> 10 µM: [1] | [13] | [3] | [6] | [7] | [8] | [9] | [11] | [15]

O=c1nc(NC2CCCCO2)ccn1CCO (configuration not stated)
> 100 µM: [13] | [14] | [2] | [3] | [4] | [7] | [8] | [9] | [10] | [12] | [15]

CCCP1(=O)C=C(C)C(=C(Cl)Cl)C(C)=C1 (configuration not stated)
> 100 µM: [13] | [14] | [3] | [4] | [7] | [9] | [15]
67.9 µM: [8]
41 µM: [10]

CC(=O)CN(Cc1cc(C)c2c(c1)c1ccccc1n2Cc1ccccc1)S(=O)(=O)c1ccc(C)cc1
> 100 µM: [13] | [3] | [7] | [8] | [10] | [12] | [15]
